Laboratory results as given in patent US10968212B2 (ACCUTAR BIOTECHNOLOGY INC., priority 2016, dated 2021).

Legend:
Estrogen Receptor alpha = target: T1, Estrogen Receptor alpha (Homo sapiens, UniProt P03372); assay: Estrogen Receptor alpha degradation in MCF-7 cells (immunoblot, 20 hours); type: cell-based; conditions: concentrations from 1 nM to 1 μM, FIGS. 3A and 3B
T1 construct: endogenous in cells; host or cells: MCF7 or LTED cells
T1 sequence (P03372 1-595): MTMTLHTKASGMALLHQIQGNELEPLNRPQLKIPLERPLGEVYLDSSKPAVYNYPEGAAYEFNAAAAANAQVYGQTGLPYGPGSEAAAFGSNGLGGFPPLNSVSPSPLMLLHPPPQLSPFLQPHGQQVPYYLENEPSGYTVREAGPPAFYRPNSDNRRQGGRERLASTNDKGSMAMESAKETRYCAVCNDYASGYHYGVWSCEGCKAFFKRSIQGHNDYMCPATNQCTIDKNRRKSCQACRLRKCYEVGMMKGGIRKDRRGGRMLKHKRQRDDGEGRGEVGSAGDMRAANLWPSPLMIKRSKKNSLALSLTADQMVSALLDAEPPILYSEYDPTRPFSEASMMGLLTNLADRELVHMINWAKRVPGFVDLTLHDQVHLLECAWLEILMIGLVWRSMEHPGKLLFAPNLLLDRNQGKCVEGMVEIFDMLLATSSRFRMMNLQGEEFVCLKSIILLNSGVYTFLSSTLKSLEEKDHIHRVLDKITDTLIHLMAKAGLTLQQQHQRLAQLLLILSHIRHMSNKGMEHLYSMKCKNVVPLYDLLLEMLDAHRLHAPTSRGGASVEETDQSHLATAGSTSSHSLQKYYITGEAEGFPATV
Method: MCF-7 cells were maintained in high glucose DMEM (Corning cellgro, 15-013-CM), supplemented with 10% FBS, 1× L-Glutamine (29.2 mg/mL) and 1× Penicillin Streptomycin (10,000 I.U./mL Penicillin; 10,000 μg/mL Streptomycin; Corning, 30-009-CI). The resulting MCF-7 cells were plated into a 24-well plate at 1×10^5 cells/well, and the following day, compound was added to the cell medium at various concentrations. After treating the cell medium with compound, the cell plates were incubated for 20 hours at 37° C. Upon cooling, cells were lysed by addition of SDS loading buffer. The resulting cell lysates were subjected to immunoblotting by standard protocol. with primary antibodies of mouse anti-human ERα monoclonal antibody (Santa Cruz Biotechnology Inc., #SC-8002) and 1:1000 goat anti-human actin polyclonal antibody (Santa Cruz Biotechnology Inc. #SC-1616). Western blot results visualized using picoLUCENT™ PLUS-HRP ECL (G Biosciences, 786-165) and LI-CORC digit imaging system.

MCF-7 tumors = assay: Tumor growth inhibition in MCF-7 breast cancer-derived mouse xenograft model; type: in vivo; conditions: 10 mg/day, i.p., 3 weeks, BALB/c nude mice with MCF-7 tumors; FIG. 14A
Method: For the tumor growth inhibition study, female BALB/c nude mice (with supplemental 17-β estradiol) bearing MCF-7 tumors (mean tumor volume 211 mm^3) were i.p. treated with Accutar-153 (10 mg/day) in vehicle or by vehicle only for 3 weeks. Body weight and tumor volume (tumor volume=[length×width^2]/2) were monitored twice weekly. At the end of study, plasma, tumor tissues and organs (brain, liver, kidney) for each animal were collected for further analysis.
Female BALB/c nude mice (supplemented with 17-β estradiol) bearing MCF-7 tumors (mean tumor volume was 211 mm^3) were treated with the compound:
[drawing 197] (10 mg/day, i.p.) in vehicle, or by vehicle only, for 3 weeks. Body weight and tumor volume (tumor volume=[length×width^2]/2) were monitored twice weekly. At the end of study, plasma, tumor tissues and organs (brain, liver, kidney) for each animal were collected for further analysis. The tumor growth inhibition studies were performed twice.

CC/C(=C(\c1ccccc1)c1ccc(OCCN(C)CCCCCCC(=O)N[C@H](C(=O)N2C[C@H](O)C[C@H]2C(=O)NCc2ccc(-c3scnc3C)cc2)C(C)(C)C)cc1)c1ccccc1 [Compound 4]
degradation of Estrogen Receptor alpha compared with the control (Estrogen Receptor alpha): resulted in degradation of Estrogen Receptor alpha when compared with the control

CC/C(=C(\c1ccc(O)cc1)c1ccc(OCCNC(=O)CCCCCCC(=O)N[C@H](C(=O)N2C[C@H](O)C[C@H]2C(=O)NCc2ccc(-c3scnc3C)cc2)C(C)(C)C)cc1)c1ccccc1
tumor weight, treatment group versus control group (MCF-7 tumors): significant decrease in tumor weight
